Where two headings read alike, the source gives them in different places.
Columns and labels:
[1] = amide bond, 18-membered ring, HATU/HOAt/2,6-lutidine, DCM, 45.0 °C
human PCSK9 = human PCSK9 (Homo sapiens, UniProt Q8NBP7); assay: PCSK9 ligand binding TR-FRET assay (interference with binding of human PCSK9 to human LDLR); settings: for Max % inhibition: PCSK9 FRET assay, efficacy (Amax), 100% = 1 uM unlabeled human PCSK9, 0% = DMSO; for IC50: TR-FRET, human PCSK9 Alexa Fluor 647 / human LDLR extracellular domain-Europium Kryptate, read-out: PCSK9 FRET Assay IC50
human PCSK9, sequence (Q8NBP7 153-692): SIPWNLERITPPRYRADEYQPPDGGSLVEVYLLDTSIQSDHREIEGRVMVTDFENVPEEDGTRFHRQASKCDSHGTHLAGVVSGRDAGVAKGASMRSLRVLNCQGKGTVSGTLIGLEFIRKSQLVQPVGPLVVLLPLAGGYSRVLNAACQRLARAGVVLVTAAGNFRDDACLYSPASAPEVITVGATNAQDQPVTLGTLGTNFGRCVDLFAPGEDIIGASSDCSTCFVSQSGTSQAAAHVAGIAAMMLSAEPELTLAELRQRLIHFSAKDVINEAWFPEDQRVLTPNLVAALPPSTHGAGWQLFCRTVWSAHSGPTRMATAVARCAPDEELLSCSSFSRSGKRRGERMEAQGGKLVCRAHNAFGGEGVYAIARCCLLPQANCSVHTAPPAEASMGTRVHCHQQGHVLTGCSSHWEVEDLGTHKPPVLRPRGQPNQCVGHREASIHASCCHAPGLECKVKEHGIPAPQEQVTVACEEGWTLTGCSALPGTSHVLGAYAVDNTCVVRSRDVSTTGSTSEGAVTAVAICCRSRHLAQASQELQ
human PCSK9, sequence (Q8NBP7 31-152 partner limits assumed): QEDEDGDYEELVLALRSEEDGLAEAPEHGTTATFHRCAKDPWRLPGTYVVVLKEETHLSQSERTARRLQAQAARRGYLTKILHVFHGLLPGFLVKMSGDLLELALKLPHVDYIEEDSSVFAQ
In short: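 Threefold compound dilutions were pre-incubated 30 min with PCSK9, after which 4 nM Europium Kryptate-tagged human LDLR ectodomain was added for a further 2 h.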

COC[C@@H]1NC(=O)[C@H](C)N(Cc2ccc(Cl)cc2Oc2ccc(-c3cnc(CN(C)C)n3C)cc2)C(=O)C[C@@H](Cc2ccccc2)C(=O)N(C)C2CCOCC2NC(=O)C[C@H](Cc2ccc(Cl)cc2)N(C)C1=O (stereo partly drawn)
ring closure, isolated yield ([1]; from (3R)-3-benzyl-4-((3-((S)-3-((S)-2-((S)-2-((4-chloro-2-(4-(2-((dimethylamino)methyl)-1-methyl-1H-imidazol-5-yl)phenoxy)benzyl)amino)propanamido)-3-methoxy-N-methylpropanamido)-4-(4-chloro phenyl)butanamido)tetrahydro-2H-pyran-4-yl)(methyl)amino)-4-oxobutanoic acid): 17%

COC[C@@H]1NC(=O)[C@H](CCNC(=O)OC(C)(C)C)N(Cc2ccc(Cl)cc2Oc2ccc(-c3cnc(CN(C)C)n3C)cc2)C(=O)C[C@@H](Cc2ccccc2)C(=O)N(C)[C@H]2CCCC[C@@H]2NC(=O)C[C@H](Cc2ccc(Cl)cc2)N(C)C1=O
ring closure, isolated yield ([1]; from (R)-3-Benzyl-4-(((1S,2S)-2-((8S,11S,14S)-8-((4-chloro-2-(4-(2-((dimethylamino)methyl)-1-methyl-1H-imidazol-5-yl)phenoxy)benzyl)amino)-14-(4-chlorobenzyl)-11-(methoxymethyl)-2,2,13-trimethyl-4,9,12-trioxo-3-oxa-5,10,13-triazahexadecan-16-amido)cyclohexyl)(methyl)amino)-4-oxobutanoic acid, 0.845 mM): 59.6%

COC[C@@H]1NC(=O)[C@H](C)N(Cc2ccc(Cl)cc2Oc2ccc(-c3cnc(CN(C)C)n3C)cc2)C(=O)C[C@@H](Cc2ccccc2)C(=O)N(C)C2CC2NC(=O)C[C@H](Cc2ccc(Cl)cc2)N(C)C1=O.O=C(O)C(F)(F)F (mixture of isomers) [Compound 147, (5S,8S,11S,15R)-15-benzyl-12-(4-chloro-2-(4-(2-((dimethylamino)methyl)-1-methyl-1H-imidazol-5-yl)phenoxy)benzyl)-5-(4-chlorobenzyl)-8-(methoxymethyl)-6,11,17-trimethyl-2,6,9,12,17-pentaazabicyclo[16.1.0]nonadecane-3,7,10,13,16-pentaone trifluoroacetate]
Max % inhibition (human PCSK9): 104.16% | IC50 (human PCSK9): 3.7 nM | ring closure, isolated yield ([1]; from (3R)-3-benzyl-4-((2-((S)-3-((S)-2-((S)-2-((4-chloro-2-(4-(2-((dimethylamino)methyl)-1-methyl-1H-imidazol-5-yl)phenoxy)benzyl)amino)propanamido)-3-methoxy-N-methylpropanamido)-4-(4-chlorophenyl)butanamido)cyclopropyl)(methyl)amino)-4-oxobutanoic acid?): 19%

COC[C@@H]1NC(=O)[C@H](C)N(Cc2ccc(Cl)cc2Oc2ccc(-c3cnc(CN(C)C)n3C)cc2)C(=O)C[C@@H](Cc2ccc(F)c(F)c2F)C(=O)N(C)[C@@H](C)[C@H](C)NC(=O)C[C@H](Cc2ccc(Cl)cc2)N(C)C1=O [Compound 293, (2S,5S,8S,12S,13S,16R)-1-(4-chloro-2-(4-(2-((dimethylamino)methyl)-1-methyl-1H-imidazol-5-yl)phenoxy)benzyl)-8-(4-chlorobenzyl)-5-(methoxymethyl)-2,7,12,13,14-pentamethyl-16-(2,3,4-trifluorobenzyl)-1,4,7,11,14-pentaazacyclooctadecane-3,6,10,15,18-pentaone]
Max % inhibition (human PCSK9): 103.68% | IC50 (human PCSK9): 0.7 nM

COC[C@@H]1NC(=O)[C@@H](C)N(Cc2ccc(Cl)cc2Oc2ccc(-c3cnc(CN(C)C)n3C)cc2)C(=O)C[C@@H](Cc2ccccc2)C(=O)N(C)[C@H]2CCOC[C@@H]2NC(=O)C[C@H](Cc2ccc(Cl)cc2)N(C)C1=O [Compound 294, (4S,7S,10R,14R,16aS,20aR)-14-benzyl-11-(4-chloro-2-(4-(2-((dimethylamino)methyl)-1-methyl-1H-imidazol-5-yl)phenoxy)benzyl)-4-(4-chlorobenzyl)-7-(methoxymethyl)-5,10,16-trimethyltetradecahydro-1H-pyrano[3,4-l][1,4,7,11,14]pentaazacyclooctadecine-2,6,9,12,15(3H)-pentaone]
Max % inhibition (human PCSK9): 55.44% | IC50 (human PCSK9): 105 nM

COC[C@@H]1NC(=O)[C@H](C)N(Cc2ccc(Cl)cc2Oc2ccc(-c3cnc(CN(C)C)n3C)cc2)C(=O)C[C@@H](Cc2ccccn2)C(=O)N(C)[C@@H](C)[C@H](C)NC(=O)C[C@H](Cc2ccc(Cl)cc2)N(C)C1=O [Compound 295, (2S,5S,8S,12S,13S,16R)-1-(4-chloro-2-(4-(2-((dimethylamino)methyl)-1-methyl-1H-imidazol-5-yl)phenoxy)benzyl)-8-(4-chlorobenzyl)-5-(methoxymethyl)-2,7,12,13,14-pentamethyl-16-(pyridin-2-ylmethyl)-1,4,7,11,14-pentaazacyclooctadecane-3,6,10,15,18-pentaone]
Max % inhibition (human PCSK9): 101.64% | IC50 (human PCSK9): 1.8 nM

COC[C@@H]1NC(=O)[C@H](CCCN2CCCC2=O)N(Cc2ccc(Cl)cc2Oc2ccc(-c3cnc(CN(C)C)n3C)cc2)C(=O)C[C@@H](Cc2ccccc2)C(=O)N(C)[C@H]2CCCC[C@@H]2NC(=O)C[C@H](Cc2ccc(Cl)cc2)N(C)C1=O [Compound 296, (4S,7S,10S,14R,16aS,20aS)-14-benzyl-11-(4-chloro-2-(4-(2-((dimethylamino)-methyl)-1-methyl-1H-imidazol-5-yl)phenoxy)benzyl)-4-(4-chlorobenzyl)-7-(methoxymethyl)-5,16-dimethyl-10-(3-(2-oxopyrrolidin-1-yl)propyl)hexadecahydrobenzo[l][1,4,7,11,14]penta-azacyclooctadecine-2,6,9,12,15(3H)-pentaone]
Max % inhibition (human PCSK9): 98.03% | IC50 (human PCSK9): 1.2 nM

COC[C@@H]1NC(=O)[C@H](C)N(Cc2ccc(Cl)cc2Oc2c(F)cc(-c3cnc(CN4CCCC4)n3C)cc2F)C(=O)C[C@@H](Cc2ccccc2)C(=O)N(C)[C@@H](C)CNC(=O)C[C@H](Cc2ccc(Cl)cc2)N(C)C1=O [Compound 298, (2S,5S,8S,13S,16R)-16-benzyl-1-(4-chloro-2-(2,6-difluoro-4-(1-methyl-2-(pyrrolidin-1-ylmethyl)-1H-imidazol-5-yl)phenoxy)benzyl)-8-(4-chlorobenzyl)-5-(methoxymethyl)-2,7,13,14-tetramethyl-1,4,7,11,14-pentaazacyclooctadecane-3,6,10,15,18-pentaone]
Max % inhibition (human PCSK9): 99.00% | IC50 (human PCSK9): 2.01 nM

COC[C@@H]1NC(=O)[C@H](C)N(Cc2ccc(Cl)cc2Oc2ccc(-c3cnc(CN4CCCC4)n3C)c(F)c2F)C(=O)C[C@@H](Cc2ccccc2)C(=O)N(C)[C@@H](C)CNC(=O)C[C@H](Cc2ccc(Cl)cc2)N(C)C1=O [Compound 299, (2S,5S,8S,13S,16R)-16-benzyl-1-(4-chloro-2-(2,3-difluoro-4-(1-methyl-2-(pyrrolidin-1-ylmethyl)-1H-imidazol-5-yl)phenoxy)benzyl)-8-(4-chlorobenzyl)-5-(methoxymethyl)-2,7,13,14-tetramethyl-1,4,7,11,14-pentaazacyclooctadecane-3,6,10,15,18-pentaone]
Max % inhibition (human PCSK9): 95.40% | IC50 (human PCSK9): 3.3 nM

CCn1c(-c2ccc(Oc3cc(Cl)ccc3CN3C(=O)C[C@@H](Cc4ccccc4)C(=O)N(C)[C@@H](C)CNC(=O)C[C@H](Cc4ccc(Cl)cc4)N(C)C(=O)[C@H](COC)NC(=O)[C@@H]3C)cc2)cnc1CN1CCCC1 [Compound 300, (2S,5S,8S,13S,16R)-16-benzyl-1-(4-chloro-2-(4-(1-ethyl-2-(pyrrolidin-1-ylmethyl)-1H-imidazol-5-yl)phenoxy)benzyl)-8-(4-chlorobenzyl)-5-(methoxymethyl)-2,7,13,14-tetramethyl-1,4,7,11,14-pentaazacyclooctadecane-3,6,10,15,18-pentaone]
Max % inhibition (human PCSK9): 80.60% | IC50 (human PCSK9): 2.1 nM

COC[C@@H]1NC(=O)[C@H](C)N(Cc2ccc(Cl)cc2Oc2ccc(-c3cncc(CN4CCCC4)c3C)cc2)C(=O)C[C@@H](Cc2ccccc2)C(=O)N(C)[C@@H](C)CNC(=O)C[C@H](Cc2ccc(Cl)cc2)N(C)C1=O [Compound 301, (2S,5S,8S,13S,16R)-16-benzyl-1-(4-chloro-2-(4-(4-methyl-5-(pyrrolidin-1-ylmethyl)pyridin-3-yl)phenoxy)benzyl)-8-(4-chlorobenzyl)-5-(methoxymethyl)-2,7,13,14-tetramethyl-1,4,7,11,14-pentaazacyclooctadecane-3,6,10,15,18-pentaone]
Max % inhibition (human PCSK9): 54.20% | IC50 (human PCSK9): 3.9 nM

COC[C@@H]1NC(=O)[C@H](C)N(Cc2ccc(Cl)cc2Oc2ccc(-c3cnc4c(CN5CCCC5)cccn34)cc2)C(=O)C[C@@H](Cc2ccccc2)C(=O)N(C)[C@@H](C)CNC(=O)C[C@H](Cc2ccc(Cl)cc2)N(C)C1=O [Compound 302]
Max % inhibition (human PCSK9): 54.00% | IC50 (human PCSK9): 3.5 nM

COC[C@@H]1NC(=O)[C@H](C)N(Cc2ccc(Cl)cc2Oc2ccc(-c3cnc(CN4CCCC4)n3CCF)cc2)C(=O)C[C@@H](Cc2ccccc2)C(=O)N(C)[C@@H](C)CNC(=O)C[C@H](Cc2ccc(Cl)cc2)N(C)C1=O [Compound 303, (2S,5S,8S,13S,16R)-16-benzyl-1-(4-chloro-2-(4-(1-(2-fluoroethyl)-2-(pyrrolidin-1-ylmethyl)-1H-imidazol-5-yl)phenoxy)benzyl)-8-(4-chlorobenzyl)-5-(methoxymethyl)-2,7,13,14-tetramethyl-1,4,7,11,14-pentaazacyclooctadecane-3,6,10,15,18-pentaone]
Max % inhibition (human PCSK9): 52.60% | IC50 (human PCSK9): 2.9 nM

COC[C@@H]1NC(=O)[C@H](CCCN)N(Cc2ccc(Cl)cc2Oc2ccc(-c3cnc(CN(C)C)n3C)cc2)C(=O)C[C@@H](Cc2ccccc2)C(=O)N(C)[C@H]2CCCC[C@@H]2NC(=O)C[C@H](Cc2ccc(Cl)cc2)N(C)C1=O [Compound 304, (4S,7S,10S,14R,16aS,20aS)-10-(3-aminopropyl)-14-benzyl-11-(4-chloro-2-(4-(2-((dimethylamino)methyl)-1-methyl-1H-imidazol-5-yl)phenoxy)benzyl)-4-(4-chlorobenzyl)-7-(methoxymethyl)-5,16-dimethylhexadecahydrobenzo[l][1,4,7,11,14]pentaazacyclooctadecine-2,6,9,12,15(3H)-pentaone]
Max % inhibition (human PCSK9): 88.80% | IC50 (human PCSK9): 0.6 nM
